Data published in patent US20050282781A1, “Compositions of stable bioactive metabolites of docosahexaenoic (DHA) and eicosapentaenoic (EPA) acids” (priority 2004, published 2005).
Marks after values point to notes of the source that are not given here.

How the values were obtained:
[1] = tested on: pylorus ligated albino rats; test: Anti-ulcerogenic effect in pylorus ligated rats (ulcer index, gastric juice); type: in vivo
Source text: Mixture of DBPs (1:1, 1 and 2, Scheme-II), on'the other hand, increased the contents of individual and the total carbohydrates and also the total carbohydrate/protein ratio in the gastric juice. The ratio of the total carbohydrate/protein was taken as the index of the mucin activity.
Another essential criterion of determining the status of mucosal resistance/barrier is the state of mucus secretion. DBPs increase not only the mucosal cellular mucus, but also secrete more dissolved mucus in the gastric juice as evidenced by their effects on gastric juice carbohydrates and on the increased carbohydrate/protein ratio.

active learning in rats = test: Active learning (learning acquisition), number of trials to reach criterion; type: in vivo, rat; conditions: p.o. once daily 45 min before trial for 4 days, mean ± SEM
Source text: In the learning acquisition paradigm, in the control group, the number of shocked and unshocked trials required to reach the criterion of 10 correct conditional responses, were 14.33 and 43.70, respectively.

[2] = tested on: CS-induced gastric ulceration in albino rats; test: Chronic stress (foot-shock) induced gastric ulceration; type: in vivo
Description: A comparative study of DBPs (1, 2, Scheme-II; 1:1 mixture), EPA and DHA was carried out to determine their relative adaptogenic potency against chronic stress in albino rats. The study is also relevant in view of the projected links of EPA and DHA to mental development in children which is severely retarded by chronic stress.
Rats were randomly assigned to control or stress groups. Those assigned to the stress groups were subjected to 1 hour foot-shock, through a grid floor, every day for 14 days. The duration of each shock (2 mA) and the intervals between the shocks were randomly programmed between 3-5 seconds and 10-110 seconds, respectively, to make the stress unpredictable.
EPA (Aldrich), DHA (Sigma) and DBPs were separately suspended/dissolved in 0.3% carboxymethylcellulose (CMC) in distilled water and administered orally (p.o.) for 14 days, starting on day 1, 60 min. prior to electro-shock. Control animals received only the vehicle in either unstressed or the stressed rats for the same period in a volume of 2 ml/Kg, p.o. Estimations were conducted on day 14, one hour after the last stress procedure and two hours after the last test compound or vehicle was administered.
The three test compounds had, albeit in different extent, dose-related anti-ulcerogenic effect. The efficacy was in the order: DBPs>DHA>EPA (Table 2).

[3] = tested on: CS-induced alteration of adrenal gland ascorbic acid and corticosterone concentrations and plasma corticosterone level; test: Chronic stress induced alteration of adrenal ascorbic acid, adrenal corticosterone and plasma corticosterone; type: in vivo, albino rats
Description: The study is also relevant in view of the projected links of EPA and DHA to mental development in children which is severely retarded by chronic stress. Rats were randomly assigned to control or stress groups. Those assigned to the stress groups were subjected to 1 hour foot-shock, through a grid floor, every day for 14 days. […] Control animals received only the vehicle in either unstressed or the stressed rats for the same period in a volume of 2 ml/Kg, p.o. […] CS caused marked depletion of adrenal gland ascorbic acid and corticosterone concentrations with concomitant increase in plasma corticosterone levels. […] They had no per se effect on the indices of stress investigated (Table 3).

open-field test in rats = test: Open-field test (anxiogenic test model); type: in vivo, rat; set-up: Immobility: unit not given here
Description: This was determined according to a previously described method (Bhattacharya et al. 1998).
MDMA (5 and 10 mg/Kg, i.p.) produced a dose-related decrease in the number of squares crossed and rears, with concomitant immobility and increased defecation; these effects are qualitatively similar to those induced by yohimbine (2 mg/Kg, i.p. in 0.9% saline as the vehicle). DBPs (1 and 2, 1:1 mixture 10 mg/Kg, p.o. day-1, for 7 days) were administered prior to MDMA or yohimbine administration, on the 7th day, 1 hour after the last DBPs administration (p.o.). Similar anti-anxiogenic effects were observed on pretreatment of MDMA, followed by DBPs.

[4] = L-DOPA-sparing by singlet oxygen quenching (Rose Bengal plates); type: biochemical; conditions: for Percent inhibition of L-DOPA oxidation (mean ± SEM): 30 min exposure to 1O2, Pi buffer pH 7.2
Source text: A comparative study of the antioxidant defence provided by the three compounds, DBPs, EPA and DHA, was made. The reason for selection of this test (antioxidant-profile) is, that, agents that can regulate systemic production and interactions of reactive oxygen species, like singlet oxygen, superoxide radical and hydroxyl radical, can provide surveillance umbrella to living organisms against ‘oxidative stress’.
The singlet oxygen was generated on Rose Bengal-coated glass plates by illuminating with a 150-W spot-light at a distance of 30 cm, through water to filter infra-red light (Ghosal, S. and Bhattacharya, S. K. (1996). Antioxidant defence by shilajit, Indian J. Chem., 35B, 127-132).

mice = test: Forced swimming immobility (behavioral despair), anti-stress; type: in vivo; conditions: in these doses (50 mg/Kg p.o. × 4 days); statistically insignificant
Description: Rodents when forced to swim in a restricted place, from which they cannot escape, become immobile after an initial period of vigorous activity. The observed immobility signified behavioral despair, resembling a state of mental depression. Behavioral depression is a common consequence of stress. The significant anti-stress effects of DBPs (1 and 2, Scheme-II), was assessed by the considerable reduction in the period of immobility in the test compound treated mice.

[5] = tested on: increased 5-HT release activity in MDMA-treated rats; test: MDMA-withdrawal increased 5-HT release; type: in vivo, rat; conditions: post-treatment in MDMA-treated rats
Source text: EPA or DHA would not be truly effective for this purpose. There is evidence that presynaptic serotonergic, but not dopaminergic, mechanisms are involved in the enactogen-like discriminative stimulus properties of MDMA. MDMA increases the number of rat brain 5-hydroxytryptamine 5-HT1A receptors and induces increased release of 5-HT from presynaptic terminals. The MDMA-withdrawal syndrome includes this increased 5-HT release activity in rats.

[6] = Oral EPA or DHA to albino rats, blood levels of DBPs and benzoic acid by HPLC and GC-MS; type: in vivo
Description: Oral administration of EPA to albino rats and tracking the blood level of DBPs by HPLC were conducted. […] Cells and plasma were separated by centrifugation and extracted separately with methanol before (BH) and after acidic (HCl) hydrolysis (AH). These extracts were subjected to HPLC, when DBPs (3-hydroxy- and 3,8-dihydroxydibenzo-α-pyrones) so formed were tracked and estimated. FIGS. 2A and 2B show the turnover of EPA into 3,8-dihydroxydibenzo-α-pyrone.
Blood samples (2.5 ml) were collected from albino rats (200-220 grams, b.w.) by retro-orbital puncture, in heparinized tubes and centrifuged (3000 rpm) for 5 min. The supernatant (plasma, 0.4 ml) was collected and extracted with methanol (5 ml×3), at 60° C. by sonication for 10 min each. The combined methanolic extract was filtered and evaporated in vacuo. The residue so obtained was subjected to HPLC and GC-MS (as TMS derivatives) analyses. The presence of both 3-hydroxy-(str. 1, Scheme-II) and 3,8-dihydroxy-dibenzo-α-pyrone (str. 2, Scheme-II) was detected. Thus, the two DBPs are the normal metabolites of the albino rats. Their normal concentrations (control value) in the experimental rat blood were estimated at 0.170±0.052 μg/ml (str. 1, Scheme-II) and 0.100±0.023 μg/ml (str. 2, Scheme-II).
In the EPA treatment experiment to the above animals, EPA (25 mg, in propylene glycol, 0.5 ml) per rat was fed through the oral route. […]

[7] = 5 mg/Kg p.o. for 14 days + chronic stress
[8] = 10 mg/Kg p.o. for 14 days + chronic stress
[9] = 5 mg/Kg p.o., unstressed rats (per se effect)
[10] = 10 mg/Kg p.o., unstressed rats (per se effect)
[11] = 10 mg/Kg p.o. for 7 days, prior to MDMA or yohimbine administration

| SMILES | Number of trials to reach criterion, Shocked trials (active learning in rats; dose 2.5 mg/ml) | Number of trials to reach criterion, Unshocked trials (active learning in rats; dose 2.5 mg/ml) | Number of trials to reach criterion, Shocked trials (active learning in rats; dose 5.0 mg/ml) | No. of ulcers [2, 7] | Severity of ulcers [2, 7] | Ulcer incidence (%) [2, 7] | No. of ulcers [2, 8] | Severity of ulcers [2, 8] | Ulcer incidence (%) [2, 8] | Adrenal ascorbic acid [3, 7] | Adrenal corticosterone [3, 7] | Plasma corticosterone [3, 7] | Adrenal ascorbic acid [3, 9] | Adrenal corticosterone [3, 9] | Plasma corticosterone [3, 9] | Adrenal ascorbic acid [3, 8] | Adrenal corticosterone [3, 8] | Plasma corticosterone [3, 8] | Adrenal ascorbic acid [3, 10] | Adrenal corticosterone [3, 10] | also measured |
| --- | --- | --- | --- | --- | --- | --- | --- | --- | --- | --- | --- | --- | --- | --- | --- | --- | --- | --- | --- | --- | --- |
| CC(=O)Oc1ccccc1C(=O)O [ASP, aspirin] |  |  |  |  |  |  |  |  |  |  |  |  |  |  |  |  |  |  |  |  | protein content in the gastric juice ([1]; compared to the vehicle control): significant increase; contents of DNA and protein in the gastric juice ([1]; pylorus ligated rats): appreciable increase; total carbohydrate/protein ratio in the gastric juice (index of mucin activity) ([1]; pylorus ligated rats): considerable decrease |
| CC/C=C\C/C=C\C/C=C\C/C=C\C/C=C\C/C=C\CCC(=O)O [DHA, docosahexaenoic acid] | 12.55 ± 2.03 | 39.33 ± 2.04 | 12.78 ± 1.83 | 15.8 ± 4.0 | 28.1 ± 5.9 | 70% | 14.7 ± 3.8 | 25.0 ± 5.2 | 60% | 140.7 ± 20.5 μg/100 mg | 2.5 ± 1.0 μg/100 mg | 22.5 ± 3.5^b μg/dL | 309.4 ± 30.4 μg/100 mg | 4.8 ± 1.2 μg/100 mg | 15.0 ± 0.9 µg/dL | 148.0 ± 16.7^b μg/100 mg | 2.8 ± 1.0^b μg/100 mg | 17.9 ± 0.9^b μg/dL | 308.9 ± 27.4 μg/100 mg | 5.5 ± 1.0 μg/100 mg | Plasma corticosterone [3, 10]: 14.7 ± 1.0 µg/dL; Faecal pellets (open-field test in rats; [11]): 5.7 ± 4.1; Immobility (open-field test in rats; [11]): 59.9 ± 7.2; Rears (open-field test in rats; [11]): 14.0 ± 5.5; Squares crossed (open-field test in rats; [11]): 122.1 ± 5.5 |
| CC/C=C\C/C=C\C/C=C\C/C=C\C/C=C\CCCC(=O)O [EPA, cis-5,8,11,14,17-Eicosapentaenoic acid] | 13.82 ± 1.04 | 40.11 ± 1.88 | 12.11 ± 2.01 | 16.5 ± 3.4 | 28.3 ± 7.7 | 70% | 14.3 ± 4.4 | 26.4 ± 6.2 | 60% | 138.5 ± 18.2 μg/100 mg | 3.0 ± 1.4 μg/100 mg | 17.9 ± 0.9^b μg/dL | 308.8 ± 28.7 μg/100 mg | 5.7 ± 1.4 μg/100 mg | 15.0 ± 1.6 µg/dL | 144.2 ± 14.7^b μg/100 mg | 2.9 ± 0.7^b μg/100 mg | 18.3 ± 1.8^b μg/dL | 310.5 ± 26.0 μg/100 mg | 5.2 ± 0.8 μg/100 mg | Number of trials to reach criterion, Unshocked trials (active learning in rats; dose 5.0 mg/ml): 38.14 ± 1.92; Plasma corticosterone [3, 10]: 15.5 ± 1.1 µg/dL; antioxidant effect (1O2 quenching) ([4]; 0.1-0.4 mM): only weak antioxidant effect; Percent inhibition of L-DOPA oxidation (mean ± SEM) ([4]; L-DOPA:test compound 1:0.1 mM): 7.7 ± 1.3%; Percent inhibition of L-DOPA oxidation (mean ± SEM) ([4]; L-DOPA:test compound 1:0.4 mM): 11.3 ± 3.2%; Faecal pellets (open-field test in rats; [11]): 6.8 ± 3.0; Immobility (open-field test in rats; [11]): 70.1 ± 5.3; Rears (open-field test in rats; [11]): 12.2 ± 4.8; Squares crossed (open-field test in rats; [11]): 116.5 ± 9.9; reversal of the anxiety-inducing potential of MDMA (open-field test in rats; Table 5 model): only weak reversal effect; anti-ulcerogenic effect ([1]; 10 mg/ml): only weak anti-ulcerogenic effects; anti-stress response (mice): very weak anti-stress response; prevention of MDMA-withdrawal increased 5-HT release [5]: not; blood level of 3,8-(OH)2-DBP (2) versus control ([6]; after 24 h of EPA treatment): higher than that of the control; blood level of 3,8-(OH)2-DBP (2) versus control ([6]; after 72 h of EPA treatment): came down to control level |
| CNC(C)Cc1ccc2c(c1)OCO2 (stereo not drawn) [MDMA, Methylenedioxymethylamphetamine] |  |  |  |  |  |  |  |  |  |  |  |  |  |  |  |  |  |  |  |  | Faecal pellets (open-field test in rats; 5 mg/Kg, i.p.): 6.7 ± 0.5; Immobility (open-field test in rats; 5 mg/Kg, i.p.): 69.3 ± 6.1; Rears (open-field test in rats; 5 mg/Kg, i.p.): 14.3 ± 4.2; Squares crossed (open-field test in rats; 5 mg/Kg, i.p.): 111.2 ± 8.0; Faecal pellets (open-field test in rats; 10 mg/Kg, i.p.): 8.0 ± 2.2; Immobility (open-field test in rats; 10 mg/Kg, i.p.): 80.1 ± 7.0; Rears (open-field test in rats; 10 mg/Kg, i.p.): 11.2 ± 3.9; Squares crossed (open-field test in rats; 10 mg/Kg, i.p.): 74.7 ± 5.5 |
| COC(=O)[C@@H]1[C@H]2C[C@H]3c4[nH]c5ccccc5c4CCN3C[C@@H]2CC[C@@H]1O [Yohimbine, yohimbine] |  |  |  |  |  |  |  |  |  |  |  |  |  |  |  |  |  |  |  |  | Faecal pellets (open-field test in rats; 2 mg/Kg, i.p. in 0.9% saline): 7.5 ± 1.2; Immobility (open-field test in rats; 2 mg/Kg, i.p. in 0.9% saline): 70.2 ± 4.9; Rears (open-field test in rats; 2 mg/Kg, i.p. in 0.9% saline): 12.8 ± 4.4; Squares crossed (open-field test in rats; 2 mg/Kg, i.p. in 0.9% saline): 90.8 ± 7.4 |
